Results: ChEMBL document CHEMBL1149422, “Expedited SAR study of high-affinity ligands to the alpha(2)delta subunit of voltage-gated calcium channels: Generation of a focused library using a solution-phase Sn2Ar coupling methodology” (Bioorg Med Chem Lett, 2006)

Biological target: Voltage-dependent calcium channel subunit alpha-2/delta-1 (Homo sapiens, UniProt P54289)
Assay: [3H]Gabapentin binding in human A710 membrane expressing alpha-2delta subunit of calcium channel
Type: cell membranes

Sequence of Voltage-dependent calcium channel subunit alpha-2/delta-1 (P54289 25-956 limits assumed): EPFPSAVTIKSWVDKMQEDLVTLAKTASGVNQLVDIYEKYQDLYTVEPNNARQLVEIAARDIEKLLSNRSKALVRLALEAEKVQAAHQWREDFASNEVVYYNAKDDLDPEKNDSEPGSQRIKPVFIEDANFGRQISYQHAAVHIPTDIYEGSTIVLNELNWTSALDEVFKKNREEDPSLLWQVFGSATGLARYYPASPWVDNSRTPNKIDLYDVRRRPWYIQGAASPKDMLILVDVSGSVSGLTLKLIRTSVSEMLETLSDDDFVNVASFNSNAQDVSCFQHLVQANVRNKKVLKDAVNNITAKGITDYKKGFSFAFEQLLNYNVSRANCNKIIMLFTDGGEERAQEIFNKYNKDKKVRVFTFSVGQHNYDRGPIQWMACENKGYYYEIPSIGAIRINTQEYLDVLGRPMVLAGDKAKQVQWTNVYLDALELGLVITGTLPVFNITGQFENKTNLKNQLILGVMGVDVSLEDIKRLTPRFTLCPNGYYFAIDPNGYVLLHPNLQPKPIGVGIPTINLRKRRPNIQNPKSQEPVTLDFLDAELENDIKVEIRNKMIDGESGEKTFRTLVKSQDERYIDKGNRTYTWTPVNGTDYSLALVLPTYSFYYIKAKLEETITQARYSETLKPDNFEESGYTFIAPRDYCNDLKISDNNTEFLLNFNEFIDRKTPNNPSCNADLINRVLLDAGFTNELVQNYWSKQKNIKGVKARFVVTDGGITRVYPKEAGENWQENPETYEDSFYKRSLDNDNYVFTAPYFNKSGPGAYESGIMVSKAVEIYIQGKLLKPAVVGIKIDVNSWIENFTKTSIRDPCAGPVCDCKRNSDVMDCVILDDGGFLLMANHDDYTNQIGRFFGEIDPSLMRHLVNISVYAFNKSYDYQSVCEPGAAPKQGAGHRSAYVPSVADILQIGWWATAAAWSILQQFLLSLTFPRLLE
Sequence of Voltage-dependent calcium channel subunit alpha-2/delta-1 (P54289 957-1103 limits assumed): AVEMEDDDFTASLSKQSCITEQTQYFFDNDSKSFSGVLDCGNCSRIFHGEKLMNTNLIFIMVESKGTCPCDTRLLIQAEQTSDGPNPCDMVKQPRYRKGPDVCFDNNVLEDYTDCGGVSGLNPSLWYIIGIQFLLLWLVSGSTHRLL

| Compound | IC50 |
| --- | --- |
| CCOc1ccc(-n2c(C)c3c(C)nnc(N4CCOCC4)c3c2C)cc1 | 1690 nM |
| CCOc1ccc(-n2c(C)c3c(C)nnc(NCC4CCCO4)c3c2C)cc1 (stereo not drawn) | 50 nM |
| CCOc1ccc(-n2c(C)c3c(C)nnc(NCc4cccc(OC)c4)c3c2C)cc1 | 239 nM |
| CCOc1ccc(-n2c(C)c3c(C)nnc(Nc4ccc5c(c4)OCO5)c3c2C)cc1 | 207 nM |
| CCOc1ccc(-n2c(C)c3c(C)nnc(N4CCC(NC(C)=O)C4)c3c2C)cc1 (stereo not drawn) | 144 nM |
| CCOc1ccc(-n2c(C)c3c(C)nnc(NCc4cccc(F)c4)c3c2C)cc1 | 18 nM |
| CCOc1ccc(-n2c(C)c3c(C)nnc(NC(C)C)c3c2C)cc1 | 67 nM |
| CCOc1ccc(-n2c(C)c3c(C)nnc(Nc4ccc5[nH]ncc5c4)c3c2C)cc1 | 36 nM |
| CCOc1ccc(-n2c(C)c3c(C)nnc(NCc4ccc(OC)cc4)c3c2C)cc1 | 702 nM |
| CCOc1ccc(-n2c(C)c3c(C)nnc(NCc4cccc(Cl)c4)c3c2C)cc1 | 37 nM |
| CCOc1ccc(-n2c(C)c3c(C)nnc(NCc4ccccn4)c3c2C)cc1 | > 3000 nM |
| CCOc1ccc(-n2c(C)c3c(C)nnc(Nc4ccc5[nH]ccc5c4)c3c2C)cc1 | 30 nM |
| CCOc1ccc(-n2c(C)c3c(C)nnc(N4CCCC4)c3c2C)cc1 | 180 nM |
| CCOc1ccc(-n2c(C)c3c(C)nnc(NC4CCc5ccccc54)c3c2C)cc1 (stereo not drawn) | 54 nM |
| CCOc1ccc(-n2c(C)c3c(C)nnc(NCc4cnn(C)c4)c3c2C)cc1 | 69 nM |
| CCOc1ccc(-n2c(C)c3c(C)nnc(NCC(C)CC)c3c2C)cc1 (stereo not drawn) | 84 nM |
| CCOc1ccc(-n2c(C)c3c(C)nnc(N4CC(C)CC(C)C4)c3c2C)cc1 (stereo not drawn) | 702 nM |
| CCOc1ccc(-n2c(C)c3c(C)nnc(Nc4ccc5[nH]nnc5c4)c3c2C)cc1 | 346 nM |
| CCOc1ccc(-n2c(C)c3c(C)nnc(NCc4cnn(CC)c4)c3c2C)cc1 | 64 nM |

| Compound | IC50 |
| --- | --- |
| CCOc1ccc(-n2c(C)c3c(C)nnc(NCc4ccc(F)cc4)c3c2C)cc1 | 94 nM |
| CCOc1ccc(-n2c(C)c3c(C)nnc(NCc4ccc(Cl)cc4)c3c2C)cc1 | 65 nM |
| CCOc1ccc(-n2c(C)c3c(C)nnc(NCc4n[nH]cc4C4CC4)c3c2C)cc1 | 68 nM |
| CCOc1ccc(-n2c(C)c3c(C)nnc(NCc4ccccc4OC)c3c2C)cc1 | 76 nM |
| CCOc1ccc(-n2c(C)c3c(C)nnc(N4CCC(C)CC4)c3c2C)cc1 | 370 nM |
| CCOc1ccc(-n2c(C)c3c(C)nnc(NCc4cccc5cccnc45)c3c2C)cc1 | 63 nM |
| CCOc1ccc(-n2c(C)c3c(C)nnc(NC(C)CC(C)C)c3c2C)cc1 (stereo not drawn) | 296 nM |
| CCOc1ccc(-n2c(C)c3c(C)nnc(NC4CCCc5ccccc54)c3c2C)cc1 (stereo not drawn) | 161 nM |
| CCOc1ccc(-n2c(C)c3c(C)nnc(NCc4cccnc4)c3c2C)cc1 | 119 nM |
| CCOc1ccc(-n2c(C)c3c(C)nnc(Nc4ccc5c(c4)CCC5)c3c2C)cc1 | 199 nM |
| CCOc1ccc(-n2c(C)c3c(C)nnc(N4CCC(c5ccccc5)(c5ccccc5)C4)c3c2C)cc1 | 153 nM |
| CCOc1ccc(-n2c(C)c3c(C)nnc(N4C[C@@H]5CCc6ccccc6[C@@H]5C4)c3c2C)cc1 | 84 nM |
| CCOc1ccc(-n2c(C)c3c(C)nnc(NCc4ccc5c(n4)NCCC5)c3c2C)cc1 | 32 nM |
| CCCCNc1nnc(C)c2c(C)n(-c3ccc(OCC)cc3)c(C)c12 | 61 nM |
| CCOc1ccc(-n2c(C)c3c(C)nnc(N4CCC5=C(C4)NC4C=CC=CC54)c3c2C)cc1 (stereo not drawn) | 135 nM |
| CCOc1ccc(-n2c(C)c3c(C)nnc(NCc4ccncc4)c3c2C)cc1 | 84 nM |
| CCOc1ccc(-n2c(C)c3c(C)nnc(N4CCN(C)CC4)c3c2C)cc1 | 2930 nM |
| CCOc1ccc(-n2c(C)c3c(C)nnc(NCc4cccc5[nH]ccc45)c3c2C)cc1 | 70 nM |
| CCOc1ccc(-n2c(C)c3c(C)nnc(N4CC(C)OC(C)C4)c3c2C)cc1 (stereo not drawn) | > 3000 nM |
